Test results: the supplement of paper PMC5844555

Experiments:
Test in all cases: 3' UTR reporter interaction score (median-centred robust z-score of log2 firefly/Renilla activity); higher = less repression of the 3' UTR reporter
Details in all cases: HEK293T; 48 h
[1] = test system: TP53
Procedure, shortened: (§1)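 HEK293T cells were seeded at 10,000 per well in 96-well plates and co-transfected with DharmaFECT Duo, using 100 ng of a firefly luc2P reporter carrying the gene's 3' UTR, 20 ng of Renilla pRL-TK control and 2.5 pmol of miRNA mimic. Both luciferase activities were measured 48 h after transfection. The interaction score is the log-transformed firefly/Renilla ratio, converted to a per-plate robust z-score from the median and median absolute deviation and then median-centred per miRNA, with more negative values indicating interaction. Scores were averaged across at least two independent screens.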

[2] = test system: FBXW7
Procedure, shortened: as §1

[3] = test system: ZEB2
Procedure, shortened: as §1

[4] = test system: MYB
Procedure, shortened: as §1

[5] = test system: NOTCH1
Procedure, shortened: as §1

[6] = test system: RB1
Procedure, shortened: as §1

[7] = test system: MYT1L
Procedure, shortened: as §1

[8] = test system: PHOX2B
Procedure, shortened: as §1

[9] = test system: MYC
Procedure, shortened: as §1

[10] = test system: HRAS
Procedure, shortened: as §1

[11] = test system: PHF6
Procedure, shortened: as §1

[12] = test system: BRCA2
Procedure, shortened: as §1

[13] = test system: MYCN
Procedure, shortened: as §1

[14] = test system: EZH2
Procedure, shortened: as §1

| Sequence | 3' UTR reporter interaction score [1] | 3' UTR reporter interaction score [2] | 3' UTR reporter interaction score [3] | 3' UTR reporter interaction score [4] | 3' UTR reporter interaction score [5] | 3' UTR reporter interaction score [6] | 3' UTR reporter interaction score [7] | 3' UTR reporter interaction score [8] | 3' UTR reporter interaction score [9] | 3' UTR reporter interaction score [10] | 3' UTR reporter interaction score [11] | 3' UTR reporter interaction score [12] | 3' UTR reporter interaction score [13] | 3' UTR reporter interaction score [14] |
| --- | --- | --- | --- | --- | --- | --- | --- | --- | --- | --- | --- | --- | --- | --- |
| CUGGACUUAGGGUCAGAAGGCC | -0.836 | -0.885 | 2.31 | 1.31 | -1.28 | 1.37 | 0.968 | 1.18 | -0.781 | 0.067 | 0.77 | -1.05 | 0.447 | -0.857 |
| CUGGACUUGGAGUCAGAAGGCC | -0.688 | -1.21 | 1.96 | 1.36 | -1.42 | -0.493 | 1.12 | 0.64 | -0.585 | 0.243 | 0.484 | -0.913 | 0.91 | -1.01 |
| CUGGAUGGCUCCUCCAUGUCU | 0.127 | 0.945 | 0.281 | 0.532 | 0.182 | -2.12 | -0.148 | 1.08 | -0.501 | -0.334 | 1.87 | -1.72 | 1.88 | -1.36 |
| CUGGCCCUCUCUGCCCUUCCGU | -0.27 | -0.17 | 0.72 | 0.857 | -0.752 | -0.329 | 0.19 | -0.839 | 1.14 | 1.31 | -2.64 | 0.17 | 1.01 | 0.421 |
| CUGGGAUCUCCGGGGUCUUGGUU | -1.29 | 0.0113 | -0.251 | -0.958 | -0.177 | 2.57 | -0.147 | 0.484 | 0.773 | -0.593 | -0.552 | -0.371 | 0.56 | -0.155 |
| CUGUGCGUGUGACAGCGGCUGA | 0.618 | 0.121 | 2.18 | 1.02 | 0.0936 | 1.29 | -2.16 | -2.14 | -0.0999 | -0.943 | 0.722 | -0.102 | 0.24 | -0.315 |
| CUUCUUGUGCUCUAGGAUUGU | -0.0486 | -1.11 | 0.0232 | 0.218 | -0.719 | 0.605 | -0.427 | -1.49 | 0.759 | 0.138 | -0.418 | -1.63 | 0.82 | 0.0594 |
| CUUGGUUCAGGGAGGGUCCCCA | -0.22 | -2.49 | 1.64 | 0.238 | -0.824 | -0.223 | 0.48 | 0.231 | -0.0193 | -0.543 | 0.112 | -0.342 | 0.421 | 0.379 |
| CUUUCAGUCGGAUGUUUACAGC | 0.358 | -0.0926 | -0.248 | 0.713 | 0.359 | 0.295 | -0.118 | -0.851 | -0.326 | 0.423 | -0.685 | 0.0637 | 0 | -0.714 |
| CUUUCAGUCGGAUGUUUGCAGC | -0.309 | -0.137 | 0.565 | 0.557 | 0.454 | -0.473 | 0.0662 | 0.68 | 0.164 | 0.271 | -0.502 | -0.362 | -0.166 | -0.356 |
| CUUUUUGCGGUCUGGGCUUGC | -0.0822 | -2.11 | -2.61 | 0.803 | -0.155 | -0.184 | 1.18 | -0.0143 | 0.829 | 0.493 | -1.29 | -0.285 | 0.522 | 0.547 |
| GAAAACAGCAAUUACCUUUGCA | -0.0426 | 0.0135 | 0.263 | -1.17 | -1.34 | 0.347 | -0.261 | 0.0564 | -0.413 | -0.7 | -0.427 | 0.212 | 0.734 | 0.37 |
| GAACGCCUGUUCUUGCCAGGUGG | -0.416 | -1.79 | 0.419 | 0.0781 | 0.125 | 0.00732 | -0.992 | -0.674 | 0.431 | 0.54 | -1.24 | 1.57 | -0.325 | 1.05 |
| GAAGGCGCUUCCCUUUAGAGC | -0.514 | 0.412 | 0.676 | 0.182 | -0.268 | 0.388 | 0.364 | 1.35 | -0.899 | -1.63 | 0.189 | 0.0383 | 0.218 | -1.42 |
| GAAGGCGCUUCCCUUUGGAGU | -0.237 | 0.348 | 1.47 | -0.216 | -0.115 | 0.389 | 0.212 | 2.09 | -1.08 | -1.8 | 0.395 | 0.864 | -0.406 | -1.48 |
| GAAGUGCUUCGAUUUUGGGGUGU | -1.53 | -0.253 | 0.378 | 0.012 | 0.231 | 2.22 | -0.424 | 0.548 | 0.42 | 0.659 | 0.808 | 0.244 | 0.643 | -0.43 |
| GAAGUGUGCCGUGGUGUGUCU | 0.832 | 1.69 | -0.231 | -0.373 | -0.516 | 0.538 | -1.67 | 1.74 | -0.0876 | -0.384 | -0.942 | -0.0229 | -0.199 | -0.113 |
| GAAGUUGUUCGUGGUGGAUUCG | -1.17 | -1.37 | 0.478 | 0.448 | 0.409 | 1.05 | -1.32 | -0.358 | 0.185 | 0.113 | -0.491 | 0.514 | -0.332 | -2.16 |
